Laboratory results published in US5138067A, “Lipid derivatives” (Shionogi & Co. Ltd., priority 1991, dated 1992).
Like-named read-outs stand apart in the source and are kept apart here.

Legend:
[1] = tested on: platelet aggregation induced by PAF; assay: PAF-induced platelet aggregation inhibition (method of Born, aggregometer, platelet rich plasma); format: cell-based; details: in vitro, rabbit PRP 50-55×10^4 /μl, 37° C., PAF C16 final 20 nM added 2 minutes after compound, read-out: IC50 (concentration of the test compounds which inhibit 50% platelet aggregation)
Experimental: Mature male rabbits (NIBS-JW, RABITON Institute Inc., weighing 2.2-2.5 kg) were used. […] (The total volume of blood sample in each tube was adjusted to 8 ml.)
The blood sample in each tube was gently shaken and then centrifuged for 10 minutes at 200 g at 22° C. to give platelet rich plasma (PRP). The remaining blood was further centrifuged at 3,000 rpm (about 1,900 g) for 10 minutes at 22° C. to give platelet-poor plasma (PPP).
PRP was diluted with PPP to prepare a blood sample whose platelet number was 50-55×10^4 /μl. The sample was then subjected to a platelet aggregation test.
A volume of 230 μl of PRP, whose platelet number was adjusted to 50-55×10^4 /μl, was placed in a measuring cuvette and set in the aggregometer. PRP was warmed at 37° C. for 1 minute with stirring at 1,200 rpm, and then a solution of the test compound [dimethylsulfoxide solution (1μl) of the compound+saline (9μl)] was added thereto. Exactly 2 minutes later, 10 μl of platelet activating factor (PAF, C16) (final concentration: 20 nM) was added as a platelet aggregating agent, and the change in light transmission caused by platelet aggregation was recorded.
The light transmissions of PRP and PPP were taken as 0% and 100% aggregation, respectively, and the maximum light transmission after addition of an aggregating agent was made the maximum aggregation. The inhibition rate of the platelet aggregation was expressed as the percentage of the maximum aggregation by a test compound to that by a control (Vehicle added group).

[2] = tested on: platelet aggregation induced by PAF; details: known property of the reference compound; cited from earlier work
[3] = Oryctolagus cuniculus, Platelet, 2 min

2-methoxy-1-octadecylcarbamoylthio-3-(4-quinoliniopropylsulfonyamino)propane chloride [I a27]
IC50 [1]: 0.74 µM

CCCCCCCCCCCCCCCCCCNC(=O)OCC(CNS(=O)(=O)CCC[N+](C)(C)C)OC (stereo not drawn) [I a1, 2-methoxy-1-octadecylcarbamoyloxy-3-(3-trimethylammoniosulfonylamino)propane chloride]
IC50 [1, 3]: 48.1 µM

CCCCCCCCCCCCCCCCCCNC(=O)OCC(CNS(=O)(=O)CCC[n+]1ccsc1)OC (stereo not drawn) [I a2, 2-methoxy-1-octadecylcarbamoyloxy-3-(3-thiazoliopropylsulfonylamino)propane iodide]
IC50 [1, 3]: 1.89 µM

CCCCCCCCCCCCCCCCCCNC(=O)OCC(CNS(=O)(=O)CCC[n+]1ccccc1)OC (stereo not drawn) [I a3]
IC50 [1, 3]: 5.2 µM

CCCCCCCCCCCCCCCCCCNC(=O)OCC(CNS(=O)(=O)CCC[N+]1(C)CCOCC1)OC (stereo not drawn) [I a4]
IC50 [1, 3]: 64.2 µM

CCCCCCCCCCCCCCCCCCNC(=O)OCC(CNS(=O)(=O)CCC[n+]1cscc1C)OC (stereo not drawn) [I a5]
IC50 [1, 3]: 1.89 µM

CCCCCCCCCCCCCCCCCCNC(=O)OCC(CNS(=O)(=O)CCC[n+]1ccncc1)OC (stereo not drawn) [I a6]
IC50 [1, 3]: 45.4 µM

CCCCCCCCCCCCCCCCCCNC(=O)OCC(CNS(=O)(=O)CCC[n+]1cccc2ccccc21)OC (stereo not drawn) [I a7]
IC50 [1, 3]: 0.65 µM

CCCCCCCCCCCCCCCCSCC(CNS(=O)(=O)CCC[N+](C)(C)C)OC (stereo not drawn) [I a8, 1-hexadecylthio-2-methoxy-3-(3-trimethylammoniopropylsulfonylamino)propaneiodide]
IC50 [1, 3]: 82.1 µM

CCCCCCCCCCCCCCCCSCC(CNS(=O)(=O)CCC[n+]1ccsc1)OC (stereo not drawn) [I a9, 1-hexadecylthio-2-methoxy-3-(3-thiazoliopropylsulfonylamino)propane iodide]
IC50 [1, 3]: 3.64 µM

CCCCCCCCCCCCCCCCOCC(CNS(=O)(=O)CCC[N+](C)(C)C)OC (stereo not drawn) [I a10, 1-hexadecyloxy-2-methoxy-3-(3-trimethylammoniopropylsulfonylamino)propane iodide]
IC50 [1, 3]: 79.9 µM

CCCCCCCCCCCCCCCCOCC(CNS(=O)(=O)CCC[n+]1ccsc1)OC (stereo not drawn) [I a11, 1-hexadecyloxy-2-methoxy-3-(3-thiazoliopropylsulfonylamino)propane iodide]
IC50 [1, 3]: 2.97 µM

CCCCCCCCCCCCCCCCCCNC(=O)OCC(CNS(=O)(=O)CC[n+]1ccsc1)OC (stereo not drawn) [I a12, 2-methoxy-1-octadecylcarbamoyloxy-3-(2-thiazolioethylsulfonylamino)propaneiodide]
IC50 [1, 3]: 5.95 µM

CCCCCCCCCCCCCCCCCCNC(=O)OCC(CNS(=O)(=O)CCCC[n+]1ccsc1)OC (stereo not drawn) [I a13, 2-methoxy-1-octadecylcarbamoyloxy-3-(4-thiazoliobutylsulfonylamino)propaneiodide]
IC50 [1, 3]: 1.77 µM

CCCCCCCCCCCCCCCCCCNC(=O)OCC(CNS(=O)(=O)CCCC[n+]1cccc2ccccc21)OC (stereo not drawn) [I a14]
IC50 [1, 3]: 1.29 µM

CCCCCCCCCCCCCCCCCCNC(=O)OCC(CNS(=O)(=O)CCCC[n+]1ccc2ccccc2c1)OC (stereo not drawn) [I a16]
IC50 [1, 3]: 13.5 µM

CCCCCCCCCCCCCCCCCCNC(=O)OCC(CNS(=O)(=O)CCCC[n+]1ccc2ccccc2c1)OC (stereo not drawn) [I a20]
IC50 [1]: 16 µM

CCCCCCCCCCCCCCCCCCNC(=O)SCC(CNS(=O)(=O)CCC[n+]1cccc2ccccc21)OC (stereo not drawn) [I a25, 2-methoxy-1-octadecylcarbamoylthio-3-(3-quinoliniopropylsulfonylamino)propane iodide]
IC50 [1, 3]: 0.36 µM

CCCCCCCCCCCCCCCCCCNC(=O)SCC(CNS(=O)(=O)CCC[n+]1ccsc1)OC (stereo not drawn) [I a26, 2-methoxy-1-octadecylcarbamoylthio-3-(3-thiazoliniopropylsulfonylamino)propane iodide]
IC50 [1, 3]: 1.93 µM

CCCCCCCCCCCCCCCCCCNC(=O)OCC1(CNS(=O)(=O)CCC[n+]2cccc3ccccc32)CCCO1 (stereo not drawn) [I b2, 2-octadecylcarbamoyloxymethyl-2-(3-qunoliniopropylsulfonylaminomethyl)tetrahydrofuran iodido]
IC50 [1, 3]: 0.385 µM

CCCCCCCCCCCCCCCCSCC(CNS(=O)(=O)CCC[n+]1cccc2ccccc21)OC(=O)NC (stereo not drawn) [I c1, 1-hexadecylthio-2-methylcarbamoyloxy-3-(3-quinoliniopropylsulfonylamino)propane iodide]
IC50 [1, 3]: 0.92 µM

CCCCCCCCCCCCCCCCCCNC(=O)OCC(CNS(=O)(=O)CCC[n+]1cccc2ccccc21)OC(=O)NC (stereo not drawn) [I c3, 2-methylcarbamoyloxy-1-octadecylcarbamoyloxy-3(3-quinoliniopropylsulfonylamino)propane iodide]
IC50 [1, 3]: 0.33 µM

CCCCCCCCCCCCCCCCCCNC(=O)OCC(CNS(=O)(=O)CCC[n+]1cccc2ccccc21)NC(=O)OC (stereo not drawn) [I e5, 1-octadecylcarbamoyloxy-2-methoxycarbonylamino-3-(3-quinoliniopropylsulfonylamino)propane iodide]
IC50 [1, 3]: 0.533 µM

CCCCCCCCCCCCCCCCCCNC(=O)OCC(CNS(=O)(=O)CCC[n+]1cccc2ccccc21)NC(=O)OC(C)(C)C (stereo not drawn) [I e6, 2-tert-butoxycarbonylamino-1-octadecylcarbamoyloxy-3-(3-quinoliniopropylsulfonylamino)propane iodide]
IC50 [1, 3]: 3.09 µM

CCCCCCCCCCCCCCCCSCC(CNS(=O)(=O)CCC[n+]1cccc2ccccc21)NC(=O)OC (stereo not drawn) [I e7, 1-hexadecylthio-2-methoxycarbonylamino-3-(3-quinoliniopropylsulfonylamino)propane iodide]
IC50 [1, 3]: 0.85 µM

CCCCCCCCCCCCCCCCSCC(CNS(=O)(=O)CCC[n+]1cccc2ccccc21)NC(=O)OC(C)(C)C (stereo not drawn) [I e8, 2-tert-butoxycarbonylamino-1-hexadecylthio-3-(3-quinoliniopropylsulfonylamino)propane iodide]
IC50 [1, 3]: 1.97 µM

CCCCCCCCCCCCCCCCCCNC(=O)OCC(CNS(=O)(=O)CCC[n+]1cccc2ccccc21)NC(=O)NC (stereo not drawn) [I f3, 1-octadecylcarbamoyloxy-2-(3-methylureido)-3-(3-quinoliniopropylsulfonylamino)propane iodide]
IC50 [1, 3]: 0.965 µM

CCCCCCCCCCCCCCCCSCC(CNS(=O)(=O)CCC[n+]1cccc2ccccc21)NC(=O)NC (stereo not drawn) [I f4]
IC50 [1, 3]: 0.873 µM

CCCCCCCCCCCCCCCCSCC(CNS(=O)(=O)CCC[N+](C)(C)C)NC(C)=O (stereo not drawn) [I g2, 2-acetamido-1-hexadecylthio-3-(3-trimethylammoniopropylsulfonylamino)propane iodide]
IC50 [1, 3]: 14.3 µM

CCCCCCCCCCCCCCCCCCNC(=O)OCC(CNS(=O)(=O)CCC[n+]1cccc2ccccc21)NC(C)=O (stereo not drawn) [I g4, 2-acetamido-1-octadecylcarbamoyloxy-3-(3-quinoliniopropylsulfonylamino)propane iodide]
IC50 [1, 3]: 1.83 µM

CCCCCCCCCCCCCCCCCCNC(=O)OCC(CN(C(C)=O)S(=O)(=O)CCC[n+]1cccc2ccccc21)NC(C)=O (stereo not drawn) [I g6, 3-(N-acetyl-3-quinoliniopropylsulfonylamino)-2-acetamido-1-octadecylcarbamoyloxypropane iodide]
IC50 [1, 3]: 1.32 µM

CCCCCCCCCCCCCCCCSCC(CNS(=O)(=O)CCC[N+](C)(C)C)n1nnc(C)n1 (stereo not drawn) [I h1, 1-hexadecylthio-2-(5-methyl-2H-tetrazol-2-yl)-3-(3-trimethylammoniopropylsulfonylamino)propane iodide]
IC50 [1, 3]: 23.2 µM

CCCCCCCCCCCCCCCCCCNC(=O)OCC(CNS(=O)(=O)CCC[n+]1cccc2ccccc21)Oc1ccon1 (stereo not drawn) [I j3, 2-(3-isoxazolyloxy)-1-octadecylcarbamoyloxy-3-(3-quinoliniopropylsulfonylamino)propane iodide]
IC50 [1, 3]: 0.25 µM

CCCCCCCCCCCCCCCCOCC(CNS(=O)(=O)CCC[n+]1cccc2ccccc21)COC (stereo not drawn) [I k3, 1-hexadecyloxy-2-methoxymethyl-3-(3-quinoliniopropylsulfonylamino)propane iodide]
IC50 [1, 3]: 0.6 µM

CCCCCCCCCCCCCCCCSCC(CNS(=O)(=O)CCC[N+](C)(C)C)COC (stereo not drawn) [I k4, 1-hexadecylthio-2-methoxymethyl-3-(3-trimethylammoniopropylsulfonylamino)propane iodide]
IC50 [1, 3]: 80.3 µM

CCCCCCCCCCCCCCCCCCNC(=O)OCC(CNS(=O)(=O)CCC[n+]1cccc2ccccc21)COC (stereo not drawn) [I k5, 2-methoxymethyl-1-octadecylcarbamoyloxy-3-(3-quinoliniopropylsulfonylamino)propane iodide]
IC50 [1, 3]: 0.4 µM

CCCCCCCCCCCCCCCCCCNC(=O)OCC(COC)CN(C(C)=O)S(=O)(=O)CCC[n+]1cccc2ccccc21 (stereo not drawn) [I k6, 3-(N-acetyl-3-quinoliniopropylsulfonylamino)-2-methoxymethyl-1-octadecylcarbamoyloxypropane iodide]
IC50 [1, 3]: 0.34 µM

CCCCC[C@H](O)/C=C/[C@H]1[C@H](O)CC(=O)[C@@H]1CCCCCCC(=O)O [PGE1, reference compound]
inhibition of PAF-induced platelet aggregation (known) [2]: potently inhibit the PAF-induced platelet aggregation
IC50 [1, 3]: 0.259 µM
